Measurements: patent US20260176279A1, “DUAL RAF AND TUBULIN INHIBITORS AND METHODS OF USE THEREOF” (Deciphera Pharmaceuticals, LLC, priority 2023, published 2026)
Where two headings read alike, the source gives them in different places. Values belong to the compound of their own block, whether it stands above or below them.

Tests used:
[1] = test system: tubulin; assay: Cellular Tubulin Polymerization Assay (HCT-116 cells); format: cell-based
[2] = test system: HCT-116 cells; assay: HCT-116 Cell Proliferation Assay; format: cell-based; details: Homo sapiens
Description: HCT-116 cells (catalog #CCL-247) are obtained from the American Type Culture Collect (ATCC, Manassas, VA). Briefly, cells are grown in McCoy's 5A supplemented with 10% characterized fetal bovine serum (Invitrogen, Carlsbad, CA) and 1% Penicillin/Streptomycin/L-Glutamine at 37° C., 5% CO2, and 95% humidity. Cells are expanded until reaching 70-95% confluency at which point they are sub-cultured or harvested for assay use. A serial dilution of test compound is dispensed into a 384-well black clear bottom plate in triplicate. 375 cells are added per well in 50 μL complete growth medium in the 384-well plate. Plates are incubated for 67 to 72 h at 37° C., 5% CO2, and 95% humidity. At the end of the incubation, 40 μL of a […] solution of resazurin (Sigma, St. Louis, MO) in PBS is added to each well of the plate and plates are incubated for an additional 4 to 5 hours at 37° C., 5% CO2, and 95% humidity. Plates are read on a Synergy2 or equivalent reader (Biotek, Winooski, VT) using an excitation of 540 nm and an emission of 600 nm. Data is analyzed using Prism software (Graphpad, San Diego, CA) to calculate IC50 values.

[3] = test system: MiaPaca-2 cells; assay: MiaPaca-2 Cell Proliferation Assay; format: cell-based; details: Homo sapiens, MIA PaCa-2
Description: MiaPaca-2 cells (catalog #CRL-1420) are obtained from the American Type Culture Collect (ATTC, Manassas, VA). Briefly, cells were grown in DMEM supplemented with 10% characterized fetal bovine serum (Invitrogen, Carlsbad, CA), 2.5% New Zealand sourced horse serum and 1% Penicillin/Streptomycin/L-Glutamine at 37° C., 5% CO2, and 95% humidity. Cells are expanded until reaching 70-95% confluency at which point they are sub-cultured or harvested for assay use. For assays completed in 96-well plates, a serial dilution of test compound is dispensed into a 96-well black clear bottom plate in triplicate. Three thousand cells are added per well in 200 μL complete growth medium in the 96-well plate. Plates are incubated for 67 to 72 h at 37° C., 5% CO2, and 95% humidity. At the end of the incubation, 40 μL of a […] solution of resazurin (Sigma, St. Louis, MO) in PBS is added to each well of the plate and plates are incubated for an additional 5 to 6 hours at 37° C., 5% CO2, and 95% humidity. For 384-well assays, a threefold, 8-point serial dilution of compound was spotted column wise into a 384 well black, clear bottom, tissue culture treated plate using the Beckman Coulter Echo 650. Likewise, a threefold, 8-point serial dilution of cobimetinib was spotted row wise into the 384 well black, clear bottom plate containing compound. DMSO concentration was constant across all wells at 0.4%. Seven hundred fifty cells are added per well in 50 μL complete growth medium in each 384-well plate. Plates are incubated for 67 to 72 h at 37° C., 5% CO2, and 95% humidity. At the end of the incubation, 10 μL of a 440 μM solution of resazurin (Sigma, St. Louis, MO) in PBS is added to each well of the plate and plates are incubated for an additional 4 to 6 h at 37° C., 5% CO2, and 95% humidity. Plates are read on a Synergy2 or equivalent reader (Biotek, Winooski VT) using an excitation of 540 nm and an emission of 600 nm. Data is analyzed using Prism software (Graphpad, San Diego, CA) to calculate IC50 values.

[4] = test system: HPAF-II cells; assay: HPAF-II Cell Proliferation Assay; format: cell-based; details: Homo sapiens
Description: HPAF-II cells (catalog #CRL-1997) are obtained from the American Type Culture Collect (ATCC, Manassas, VA). Briefly, cells are grown in Minimum Essential Media supplemented with 10% characterized fetal bovine serum (Invitrogen, Carlsbad, CA) and 1% Penicillin/Streptomycin/L-Glutamine at 37° C., 5% CO2, and 95% humidity. Cells are expanded until reaching 70-95% confluency at which point they are sub-cultured or harvested for assay use. A serial dilution of test compound is dispensed into a 384-well black clear bottom plate in triplicate. 750 cells are added per well in 50 μL complete growth medium in the 384-well plate. Plates are incubated for 115 to 120 h at 37° C., 5% CO2, and 95% humidity. At the end of the incubation, 40 μL of a […] solution of resazurin (Sigma, St. Louis, MO) in PBS is added to each well of the plate and plates are incubated for an additional 18 to 24 h at 37° C., 5% CO2, and 95% humidity. Plates are read on a Synergy2 or equivalent reader (Biotek, Winooski, VT) using an excitation of 540 nm and an emission of 600 nm. Data is analyzed using Prism software (Graphpad, San Diego, CA) to calculate IC50 values.

[5] = molecular target: T1, C-Raf kinase (Homo sapiens, UniProt P04049, Y340D/Y341D); assay: Biochemical Assay for C-Raf (coupled pyruvate kinase/lactate dehydrogenase assay)
T1 construct: C-Raf residues 306-end; Y340D, Y341D with N-; GST (N); purchased Eurofins
T1 sequence (P04049 307-648 Y340D/Y341D): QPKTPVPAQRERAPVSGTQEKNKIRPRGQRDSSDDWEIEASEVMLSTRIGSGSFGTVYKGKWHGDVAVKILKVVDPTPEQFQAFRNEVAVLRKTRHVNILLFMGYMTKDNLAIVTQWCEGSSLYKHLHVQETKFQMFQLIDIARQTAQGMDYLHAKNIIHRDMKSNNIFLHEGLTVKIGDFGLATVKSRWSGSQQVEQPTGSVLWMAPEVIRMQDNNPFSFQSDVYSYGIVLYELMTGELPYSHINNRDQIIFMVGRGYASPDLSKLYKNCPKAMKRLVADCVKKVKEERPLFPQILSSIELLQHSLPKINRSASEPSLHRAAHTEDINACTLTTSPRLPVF

[6] = molecular target: T2, B-Raf kinase (Homo sapiens, UniProt P15056); assay: Biochemical Assay for B-Raf (coupled pyruvate kinase/lactate dehydrogenase assay)
T2 construct: GST (N); purchased Sigma
T2 sequence (P15056 416-766): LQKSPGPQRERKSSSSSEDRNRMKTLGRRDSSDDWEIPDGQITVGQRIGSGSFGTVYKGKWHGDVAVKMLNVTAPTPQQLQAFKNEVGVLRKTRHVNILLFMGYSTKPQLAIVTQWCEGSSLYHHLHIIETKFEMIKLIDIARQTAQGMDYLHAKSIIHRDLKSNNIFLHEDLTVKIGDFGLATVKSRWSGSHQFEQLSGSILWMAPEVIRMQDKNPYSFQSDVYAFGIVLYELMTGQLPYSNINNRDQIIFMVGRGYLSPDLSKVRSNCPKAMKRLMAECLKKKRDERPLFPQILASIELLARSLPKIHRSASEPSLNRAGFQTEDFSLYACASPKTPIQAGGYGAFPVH

[7] = read-out: Tubulin Cellular, Table 5, HCT-116 cells
[8] = Table 1, inhibition of biochemical activity, read-out: CRAF
[9] = Table 1, inhibition of biochemical activity, read-out: BRAF
[10] = Table 3, HCT-116 cells, read-out: Tubulin Cellular IC50
[11] = HCT-116, Table 3, read-out: HCT-116 IC50
[12] = Table 2, inhibition of cell proliferation, read-out: HCT-116
[13] = Table 2, inhibition of cell proliferation, read-out: MiaPaca-2
[14] = Table 3, read-out: MiaPaca-2 IC50
[15] = HPAF-II, Table 3, read-out: HPAF-II IC50
[16] = Table 2, inhibition of cell proliferation, read-out: HPAF-II
[17] = HCT-116, Table 4, read-out: HCT-116 IC50
[18] = HPAF-II, Table 4, read-out: HPAF-II IC50
[19] = Table 4, read-out: MiaPaca-2 IC50

SMILES: Cc1ccc(NC(=O)N2CC[C@@H](CC(F)(F)F)C2)cc1-c1cc(N[C@H](C)CO)nc(N2CCOCC2)c1 [Exarafenib, reference compound]
IC50 [1, 7]: 1000 to 10000 nM

SMILES: Cc1ccc2c(Nc3cccc(Cl)c3F)nccc2c1NC(=O)c1csc2c(N)ncnc12 [Belvarafenib, reference compound]
IC50 ([2]; Table 5, read-out: HCT-116): 500 to 1000 nM | IC50 ([3]; Table 5, read-out: MiaPaca-2): 1000 to 10000 nM | IC50 ([4]; Table 5, read-out: HPAF-II): 1000 to 10000 nM

SMILES: Cc1ccc(NC(=O)Nc2ccc(C(F)(F)F)nc2)cc1-c1ccnc(N2CCOCC2)c1 [Example 36]
IC50 [5, 8]: < 100 nM | IC50 ([5]; Table 3, read-out: CRAF IC50): 100 to 500 nM | IC50 [6, 9]: 100 to 500 nM | IC50 ([6]; Table 3, read-out: BRAF IC50): 100 to 500 nM | IC50 [1, 10]: < 100 nM | IC50 [2, 11]: < 100 nM | IC50 [2, 12]: < 100 nM | IC50 [3, 13]: < 100 nM | IC50 [3, 14]: < 100 nM | IC50 [4, 15]: < 100 nM | IC50 [4, 16]: < 100 nM

SMILES: C[C@@H](NC(=O)c1ncnc(N)c1Cl)c1ncc(C(=O)Nc2cc(C(F)(F)F)c(Cl)cn2)s1 [Tovorafenib, reference compound]
IC50 [1, 7]: 1000 to 10000 nM

SMILES: Cc1ccc(NC(=O)Nc2cnn(CC(F)(F)F)c2)cc1-c1cc(OCCO)nc(N2CCOCC2)c1 [reference compound]
IC50 ([6]; Table 4, read-out: BRAF IC50): 1000 to 10000 nM | IC50 [2, 17]: 1000 to 10000 nM | IC50 [4, 18]: 1000 to 10000 nM

SMILES: CNC(=O)c1cc(-c2cc(-c3cc(NC(=O)Nc4ccc(C(F)(F)F)nc4)ccc3C)ccn2)ccn1 [Example 20]
IC50 [5, 8]: < 100 nM | IC50 ([5]; Table 3, read-out: CRAF IC50): < 100 nM | IC50 [6, 9]: 100 to 500 nM | IC50 ([6]; Table 3, read-out: BRAF IC50): 100 to 500 nM | IC50 [1, 10]: < 100 nM | IC50 [2, 11]: < 100 nM | IC50 [2, 12]: < 100 nM | IC50 [3, 13]: < 100 nM | IC50 [3, 14]: < 100 nM | IC50 [4, 15]: 100 to 500 nM | IC50 [4, 16]: 100 to 500 nM

SMILES: Cc1ccc(NC(=O)NC2CCCCCC2)cc1-c1cc(OCCO)nc(N2CCOCC2)c1 [reference compound]
IC50 [2, 17]: 1000 to 10000 nM | IC50 [3, 19]: 1000 to 10000 nM | IC50 [4, 18]: 1000 to 10000 nM

Second part, led by results:

IC50 ([5]; Table 4, read-out: CRAF IC50): < 100 nM | IC50 ([6]; Table 4, read-out: BRAF IC50): < 100 nM | IC50 ([1]; Table 4, HCT-116 cells, read-out: Tubulin Cellular IC50): 1000 to 10000 nM | IC50 [2, 17]: 500 to 1000 nM | IC50 [3, 19]: 1000 to 10000 nM
SMILES: CC(=O)Nc1cc(-c2cc(-c3cc(NC(=O)NCCC4(C)CC4)c(F)cc3C)ccn2)ccn1 [reference compound]
IC50 [4, 18]: 500 to 1000 nM

IC50 [2, 17]: 500 to 1000 nM
SMILES: CC(=O)Nc1cc(-c2cc(-c3cc(NC(=O)NC4CCC(F)(F)CC4)c(F)cc3C)cc(OCCO)n2)ccn1 [reference compound]
IC50 [4, 18]: 500 to 1000 nM

IC50 ([5]; Table 4, read-out: CRAF IC50): 1000 to 10000 nM | IC50 ([6]; Table 4, read-out: BRAF IC50): 1000 to 10000 nM | IC50 [2, 17]: 1000 to 10000 nM
SMILES: Cc1ccc(NC(=O)Nc2cn(C)nc2C(F)(F)F)cc1-c1cc(OCCO)nc(N2CCOCC2)c1 [reference compound]
IC50 [4, 18]: 1000 to 10000 nM
